From patent US20200093932A1, “TREATMENT OF CANCER” (BlueLink Pharmaceuticals, Inc., priority 2016, published 2020)

Tests used:
Assay type in all cases: in vivo
[1] = test system: B16.F10 mouse melanoma tumor model; assay: Example 2: CRLX101 with INCB-024360, tumor growth inhibition and delay
Procedure: On Day 1, B16.F10 cells, passage 5, were suspended in DMEM (Dulbecco's Modified Eagle Medium) and implanted subcutaneously (SC) in mice. When the mean tumor volume reached 60 mm^3, the mice were randomized into study groups and given one of the following treatments: • a control vehicle (20% DMSO/7.5% propylene glycol/5% Tween 80/67.5% PBS) administered IP bid for 13 days, from Day 5 to Day 17, with a dose volume of 10 mL/kg • CRLX101 administered IV at 6 mg/kg q7dx2, i.e. on Day 5 and Day 12 at a dose volume of 10 mL/kg as monotherapy and in combination • INCB-024360 (lot #01, SelleckChem, Houston, Tex.) 10 mg/mL in 20% DMSO/[…]/5% Tween 80/67.5% PBS. The dose was 100 mg/kg administered PO twice every day with a dose volume of 10 mL/kg for 13 days, from Day 5 to […] post tumor implantation as a monotherapy and in combination with CRLX101
(§1) Tumor volumes were measured 3 times every week using the equation (width*width*length)/2, in mm^3. Tumor growth inhibition (TGI) was determined by comparing the mean tumor volume of the treated group with the mean tumor volume of the control group, as the decrease in tumor volume of the treated group as a percent of total tumor volume of the control group. The equation to calculate TGI is (1-(treated volume/control volume))*100.
(§2) Tumor growth delay (TGD) was determined as the number of days between when the control group reached the tumor volume endpoint and when the treated group reached the tumor volume endpoint.

[2] = test system: B16.F10 mouse melanoma tumor model; assay: Example 3: CRLX101 with Indoximod, tumor growth inhibition and delay
Procedure: On Day 1, B16.F10 cells, passage 2, were suspended in DMEM (Dulbecco's Modified Eagle Medium) and implanted subcutaneously (SC) in mice. When the mean tumor volume reached 69 mm^3, the mice were randomized into study groups and given one of the following treatments: • a control vehicle (drinking water with the sweetening agent Equal™ added (2 g/L)) was included in the study from Day 7 to Day 19 post tumor implantation. • CRLX101 administered IV at 6 mg/kg q7dx2, i.e. on Day 7 and Day 14 at a dose volume of 10 mL/kg as monotherapy and in combination. • Indoximod (lot # MKBQ8091V, Sigma-Aldrich) was administered in the drinking water at a concentration of 2 mg/mL from Day 7 to Day 19 post tumor implantation as a monotherapy and in combination with CRLX101. The water had Equal™ added (2 g/L).
Tumor volumes were measured 3 times every week using the equation (width*width*length)/2, in mm^3. The endpoint for tumor volume was 2000 mm^3. Tumor growth inhibition (TGI) was determined by comparing the mean tumor volume of the treated group with the mean tumor volume of the control group, as the decrease in tumor volume of the treated group as a percent of total tumor volume of the control group. […]
as §2

[3] = test system: B16.F10 mouse melanoma tumor model; assay: Example 4: CRLX101 + NLG-919 analog versus Irinotecan + NLG-919 analog, tumor growth inhibition and delay; details: for Inhibit tumor growth?: B16.F10 SC tumors in mice, CRLX101 6 mg/kg IV q7dx2 (Day 6, 13), NLG-919 analog 12.5 mg/kg IP bid Day 6-19, Irinotecan 100 mg/kg q7dx2 (Day 6, 13); for TGI vs. Control (%): same dosing, relative to vehicle control
Procedure: On Day 1, B16.F10 cells, passage 3, were suspended in DMEM (Dulbecco's Modified Eagle Medium) and implanted subcutaneously (SC) in mice. […] The dose was 100 mg/kg q7dx2, i.e., administered at a dose volume of 10 mL/kg on Day 6 and Day 13 post tumor implantation as a monotherapy and in combination.
as §1, §2

[4] = test system: B16.F10 mouse melanoma tumor model; assay: Example 5: CRLX101 + NLG-919 analog versus anti-PD-1 antibody + NLG-919 analog, tumor growth inhibition and delay
Procedure: On Day 1, B16.F10 cells, passage 3, were suspended in DMEM (Dulbecco's Modified Eagle Medium) and implanted subcutaneously (SC) in mice.
as §1, with “(1−(treated” for “(1-(treated”
as §2

[5] = test system: B16.F10 mouse melanoma tumor model; assay: Example 1: CRLX101 with NLG-919 analog or INCB-024360 analog, tumor growth inhibition and delay
Procedure: On Day 1, B16.F10 cells, passage 3, were suspended in DMEM (Dulbecco's Modified Eagle Medium) and implanted subcutaneously (SC) in mice. […] The dose was 100 mg/kg administered PO twice every day with a dose volume of 10 mL/kg for 14 days, from Day 7 to Day 20 post tumor implantation as a monotherapy and in combination with CRLX101
as §1, §2

[6] = same dosing, vs vehicle when the control group reached the tumor volume endpoint

## NS(=O)(=O)NCCNc1nonc1/C(=N/O)Nc1ccc(F)c(Br)c1 [INCB-024360]
[1]; B16.F10 SC tumors in mice, CRLX101 6 mg/kg IV q7dx2 (Day 5, 12), INCB-024360 100 mg/kg PO bid Day 5-18
  Inhibit tumor growth?: did not inhibit tumor growth and No
[1]; same dosing, days between control and treated group reaching the tumor volume endpoint
  TGD (Day): no TGD
[1]; [6]
  TGI vs. Control (%): 20%

## Cn1cc(C[C@@H](N)C(=O)O)c2ccccc21 [Indoximod]
[2]; B16.F10 SC tumors in mice, CRLX101 6 mg/kg IV q7dx2 (Day 7, 14), Indoximod 2 mg/mL in drinking water Day 7-19
  Inhibit tumor growth?: did not inhibit tumor growth and No
[2]; same dosing, vs vehicle when the control group reached the tumor volume endpoint (2000 mm^3)
  TGI vs. Control (%): −49%

## CCc1c2c(nc3ccc(OC(=O)N4CCC(N5CCCCC5)CC4)cc13)-c1cc3c(c(=O)n1C2)COC(=O)[C@]3(O)CC [Irinotecan]
[3]
  Inhibit tumor growth?: No
  TGI vs. Control (%): −12%

## OC(CC1c2ccccc2-c2cncn21)C1CCCCC1 (stereo not shown) [NLG-919 analog]
[3]
  Inhibit tumor growth?: did not inhibit tumor growth and No
  TGI vs. Control (%): 5%
[4]; B16.F10 SC tumors in mice, CRLX101 6 mg/kg IV q7dx2 (Day 6, 13), NLG-919 analog 12.5 mg/kg IP bid Day 6-19, anti-mouse PD-1 antibody 200 μg per mouse IP Day 6, 9, 13, 16
  Inhibit tumor growth?: did not inhibit tumor growth and No
[4]; [6]
  TGI vs. Control (%): 15%
[5]; B16.F10 SC tumors in mice, CRLX101 6 mg/kg IV q7dx2 (Day 7, 14), NLG-919 analog 12.5 mg/kg IP bid Day 7-20, INCB-024360 analog 100 mg/kg PO bid Day 7-20
  Inhibit tumor growth?: No
[5]; same dosing, mean tumor volume vs vehicle when the control group reached the tumor volume endpoint
  TGI vs. Control (%): 23%
